# Read-outs that look alike come from different tables or passages of the source.
# Columns and labels:
# Pgp-MDR cells = settings: Wu et al., Eur J Pharmacol 2003; cited from earlier work
# KB-3-1 cells = test: SRB growth inhibition assay, KB-3-1; type: cell-based; settings: Homo sapiens, read-out: IC50 (cytotoxicity)
# KB V1 cells = test: SRB growth inhibition assay, KB V1; type: cell-based, human; settings: for IC50: Homo sapiens, read-out: IC50 (cytotoxicity); for Resistant ratio: IC50 KB V1 / IC50 KB-3-1
# HepG2 cells [1] = test: SRB growth inhibition assay, HepG2; type: cell-based; settings: Homo sapiens, read-out: IC50 (cytotoxicity)
# Procedure: (§1) K562, K562-DR, HepG2, HepG2-DR were cultured in RPMI-1640 medium containing 10% fetal bovine serum and 100 U/mL, antibiotics. […] Drug test: […] New calorimetric cytotoxicity assay for anticancer-drug screening. […] Mosmann T. Rapid colorimetric assay for cellular growth and survival: application to proliferation and cytotoxicity assays. […] Gerlier D, Thomasset N. […] Each growth inhibition experiment must be repeated three times and results are expressed as mean±standard deviation (SD). Solvents and media were included as blank control. In SRB assay, cells are inoculated at 5000 cells/well in a 96-well microplate and incubated overnight to let cells adhere. Drug treatment lasts for 72 hours and cells are fixed for 1 hour at 4° C. with 50 μl ice-cold 15% trichloroacetic acid and washed with triple-distilled water 5 times. […] The protein-bound dye is dissolved in 100 μl per well of 10 mM Tris base (pH 10.5). The color intensity of SRB, which positively correlate to cell number in preliminary experiments, is estimated at OD 515 nm.
# HepG2-DR cells [2] = test: SRB growth inhibition assay, HepG2-DR; type: cell-based, human; settings: for IC50: Homo sapiens, 72 h, read-out: IC50 (cytotoxicity); for Resistant ratio: IC50 HepG2-DR / IC50 HepG2
# Procedure: as §1
# K562 cells = test: MTT growth inhibition assay, K562; type: cell-based; settings: Homo sapiens
# Procedure: (§2) K562, K562-DR, HepG2, HepG2-DR were cultured in RPMI-1640 medium containing 10% fetal bovine serum and 100 U/mL, antibiotics. […] Drug test: […] New calorimetric cytotoxicity assay for anticancer-drug screening. […] Mosmann T. Rapid colorimetric assay for cellular growth and survival: application to proliferation and cytotoxicity assays. […] Gerlier D, Thomasset N. […] Each growth inhibition experiment must be repeated three times and results are expressed as mean±standard deviation (SD). Solvents and media were included as blank control. In MTT assay, cells are inoculated at 5000 cells/well and are incubated overnight. Drug treatment lasts for 68 h. MTT (5 mg/ml in PBS) is added to each well (1:10 dilution). […] Viable cell number is estimated by correlating to OD at 570 nm.
# K562-DR cells = test: MTT growth inhibition assay, K562-DR; type: cell-based, human; settings: for IC50: Homo sapiens, read-out: IC50 (cytotoxicity); for Resistant ratio: IC50 K562-DR / IC50 K562
# Procedure: as §2
# HepG2 cells [3] = test: Cell cycle distribution by flow cytometry, HepG2; type: cell-based, human
# Procedure: (§3) 1.2 Instruments: FACSCAN flow cytometry (Becton Dickinson Immunocytometry Systems, San Jose, Calif.), the obtained data were analyzed using the software of Macintosh CellQuest.
# (§4) 1.3 Cell lines: HepG2, HepG2-DR.
# (§5) 1.4 Drug treatment: HepG2 and HepG2-DR cells were respectively treated with each of cis-DMDCK, cis-DMDBK, trans-DMDCK, trans-DMDBK and doxorubicin for 48 hours, or treated respectively with the combination of doxorubicin and one of cis-DMDCK, cis-DMDBK, trans-DMDCK, trans-DMDBK for 48 hours.
# (§6) 1.5 Treatment and detection of sample cells: after washed twice by ice-cold PBS, the cells were fixed with 70% ethanol at −20° C. overnight. The fixed cells were washed by PBS once and resuspended in 1 mL of PBS containing 100 μg/mL RNAase A and incubated at 37° C. for 30 minutes. Finally, propidium iodide solution (final concentration is 40 μg/mL,) was added to bind with DNA and incubated at room temperature for 5-10 minutes. Cells were analyzed by FACSCAN flow cytometry immediately.
# HepG2-DR cells [4] = test: Cell cycle distribution by flow cytometry (doxorubicin-induced G2/M arrest), HepG2-DR; type: cell-based, human; settings: for Cell cycle distribution, G0/G1 / Cell cycle distribution, G2/M / Cell cycle distribution, S / Cell cycle distribution, SubG1: HepG2-DR, 48 h
# Procedure: as §3, §4, §5, §6
# [5] = K562, MTT, (×10^−3), read-out: IC50 (cytotoxicity)
molecule,measurement,setting,value
(±)-Praeruptorin A,Enhancement of drug sensitivity of Pgp-MDR cells,Pgp-MDR cells,only moderate
CC(=O)O[C@H]1C(=O)[C@@]2(C)[C@H]([C@H](OC(=O)c3ccccc3)[C@]3(O)C[C@H](OC(=O)[C@H](O)[C@@H](NC(=O)c4ccccc4)c4ccccc4)C(C)=C1C3(C)C)[C@]1(OC(C)=O)CO[C@@H]1C[C@@H]2O [Paclitaxel],IC50,"KB-3-1 cells; KB-3-1, SRB, 72 h",2 ± 1 nM
same,IC50,"KB V1 cells; KB V1, SRB, 72 h",8000 ± 1480 nM
same,Resistant ratio,KB V1 cells,4000
same,IC50,"HepG2 cells [1]; HepG2, SRB, 72 h, (×10^−3)",6.07 ± 2.61 nM
same,IC50,"HepG2-DR cells [2]; HepG2-DR, SRB",4230 ± 60 nM
same,Resistant ratio,HepG2-DR cells [2],696
same,IC50,K562 cells; [5],0.6 ± 0.23 nM
same,IC50,"K562-DR cells; K562-DR, MTT",3250 ± 450 nM
same,Resistant ratio,K562-DR cells,5417
CC[C@]1(O)C[C@@H]2CN(CCc3c([nH]c4ccccc34)[C@@](C(=O)OC)(c3cc4c(cc3OC)N(C)[C@H]3[C@@](O)(C(=O)OC)[C@H](OC(C)=O)[C@]5(CC)C=CCN6CC[C@]43[C@@H]65)C2)C1 [Vinblastine],IC50,"KB-3-1 cells; KB-3-1, SRB, 72 h, (×10^−3)",0.11 ± 0.01 nM
same,IC50,"KB V1 cells; KB V1, SRB, 72 h",1040 ± 340 nM
same,Resistant ratio,KB V1 cells,9271
same,IC50,"HepG2 cells [1]; HepG2, SRB, 72 h, (×10^−3)",0.1 ± 0.01 nM
same,IC50,"HepG2-DR cells [2]; HepG2-DR, SRB",310 ± 60 nM
same,Resistant ratio,HepG2-DR cells [2],3100
same,IC50,K562 cells; [5],0.88 ± 0.25 nM
same,IC50,"K562-DR cells; K562-DR, MTT",200 ± 70 nM
same,Resistant ratio,K562-DR cells,227
"COc1cccc2c1C(=O)c1c(O)c3c(c(O)c1C2=O)C[C@@](O)(C(=O)CO)C[C@@H]3O[C@H]1C[C@H](N)[C@H](O)[C@H](C)O1 [Doxorubicin, reference compound]",IC50,"KB-3-1 cells; KB-3-1, SRB, 72 h",180 ± 40 nM
same,IC50,"KB V1 cells; KB V1, SRB, 72 h",32000 ± 2740 nM
same,Resistant ratio,KB V1 cells,178
same,IC50,"HepG2 cells [1]; HepG2, SRB, 72 h",170 ± 100 nM
same,IC50,"HepG2-DR cells [2]; HepG2-DR, SRB",37300 ± 2420 nM
same,Resistant ratio,HepG2-DR cells [2],219
same,IC50,"K562 cells; K562, MTT, read-out: IC50 (cytotoxicity)",240 ± 80 nM
same,IC50,"K562-DR cells; K562-DR, MTT",31000 ± 17100 nM
same,Resistant ratio,K562-DR cells,129
same,"Cell cycle distribution, G0/G1","HepG2 cells [3]; HepG2, 0.2 μM alone, 48 h",4.92 ± 0.91%
same,"Cell cycle distribution, G2/M","HepG2 cells [3]; HepG2, 0.2 μM alone, 48 h",76.57 ± 1.32%
same,"Cell cycle distribution, S","HepG2 cells [3]; HepG2, 0.2 μM alone, 48 h",8.89 ± 0.83%
same,"Cell cycle distribution, SubG1","HepG2 cells [3]; HepG2, 0.2 μM alone, 48 h",0.92 ± 0.45%
same,Concentration achieving almost a complete G2/M arrest,HepG2 cells [3]; drug sensitive HepG2 cells,0.2 µM
same,"Cell cycle distribution, G0/G1",HepG2-DR cells [4]; 1 μM alone,51.33 ± 0.92%
same,"Cell cycle distribution, G2/M",HepG2-DR cells [4]; 1 μM alone,33.47 ± 0.17%
same,"Cell cycle distribution, S",HepG2-DR cells [4]; 1 μM alone,7.74 ± 3.57%
same,"Cell cycle distribution, SubG1",HepG2-DR cells [4]; 1 μM alone,2.37 ± 0.34%
same,"Cell cycle distribution, G0/G1",HepG2-DR cells [4]; 10 μM alone,24.81 ± 0.23%
same,"Cell cycle distribution, G2/M",HepG2-DR cells [4]; 10 μM alone,60.80 ± 0.79%
same,"Cell cycle distribution, S",HepG2-DR cells [4]; 10 μM alone,6.86 ± 1.80%
same,"Cell cycle distribution, SubG1",HepG2-DR cells [4]; 10 μM alone,3.37 ± 0.17%
same,"Cell cycle distribution, G0/G1",HepG2-DR cells [4]; 50 μM alone,12.05 ± 5.08%
same,"Cell cycle distribution, G2/M",HepG2-DR cells [4]; 50 μM alone,73.43 ± 9.00%
same,"Cell cycle distribution, S",HepG2-DR cells [4]; 50 μM alone,5.58 ± 1.34%
same,"Cell cycle distribution, SubG1",HepG2-DR cells [4]; 50 μM alone,4.88 ± 0.75%
same,Concentration required for almost a complete G2/M arrest,HepG2-DR cells [4]; P-glycoprotein-overexpressing HepG2-DR cells,over 50 μM
COc1ccc(C[C@H](N)C(=O)N[C@H]2[C@@H](O)[C@H](n3cnc4c(N(C)C)ncnc43)O[C@@H]2CO)cc1 [Puromycin],IC50,"KB-3-1 cells; KB 3-1, 72 h",210 ± 50 nM
same,IC50,"KB V1 cells; KB-V1, 72 h",79300 ± 8810 nM
same,Resistant ratio,KB V1 cells,378
same,IC50,"HepG2 cells [1]; HepG2, 72 h",170 ± 70 nM
same,IC50,HepG2-DR cells [2],104000 ± 2480 nM
same,Resistant ratio,HepG2-DR cells [2],597
same,IC50,"K562 cells; K562, read-out: IC50 (cytotoxicity)",390 ± 160 nM
same,IC50,K562-DR cells,47700 ± 9000 nM
same,Resistant ratio,K562-DR cells,122
